Assay results published in US9572891B2, “Oligonucleotide conjugates” (Geron Corporation, priority 2001, dated 2017).
Where “and” joins values, the source holds several entries; their conditions need not be identical. Equal entries are not always repeated. Where two headings read alike, the source gives them in different places.

Biological target: T1, telomerase (Homo sapiens, UniProt O14746)
T1 construct: made in house; host or cells: 293 cells over-expressing hTERT
Assay: Bio-Tel FlashPlate telomerase inhibition assay
Type: biochemical
Protocol: Extracts used for screening telomerase inhibitors were routinely prepared from 293 cells over-expressing the protein catalytic subunit of telomerase (hTERT). […] 200 ml of packed cells (harvested from about 100 liters of culture) were resuspended in an equal volume of hypotonic buffer (10 mM Hepes pH 7.9, 1 mM MgCl2, 1 mM DTT, 20 mM KCl, 1 mM PMSF) and lysed using a dounce homogenizer. The glycerol concentration was adjusted to 10% and NaCl was slowly added to give a final concentration of 0.3 M. The lysed cells were stirred for 30 min and then pelleted at 100,000×g for 1 hr. Solid ammonium sulfate was added to the S100 supernatant to reach 42% saturation. The material was centrifuged; the pellet was resuspended in one fifth of the original volume and dialyzed against Buffer ‘A’ containing 50 mM NaCl. After dialysis the extract was centrifuged for 30 min at 25,000×g. Prior to affinity chromatography, Triton X-100™ (0.5%), KCl (0.3 M) and tRNA ([…]) were added. Affinity oligonucleotide (5′-biotinTEG-biotinTEG-biotinTEG-GTA GAC CTG TTA CCA guu agg guu ag 3′ [SEQ ID NO: 16]; lower case represents 2′ O-methyl ribonucleotides and upper case represents deoxynucleotides) was added to the extract (1 nmol per 10 ml of extract). After an incubation of 10 min at 30° C., Neutravidin beads (Pierce; 250 μl of a 50% suspension) were added and the mixture was rotated overnight at 4° C. The beads were pelleted and washed three times with Buffer ‘B’ containing 0.3 M KCl, twice with Buffer ‘B’ containing 0.6 M KCl, and twice more with Buffer B containing 0.3 M KCl. Telomerase was eluted in Buffer ‘B’ containing 0.3 M KCl, 0.15% Triton X-100™ and a 2.5 molar excess of displacement oligonucleotide (5′-CTAACCCTAACTGGTAACAGGTCTAC-3′ [SEQ ID NO: 17] at 0.5 ml per 125 μl of packed Neutravidin beads) for 30 min. at room temperature. A second elution was performed and pooled with the first. Purified extracts typically had specific activities of 10 fmol nucleotides incorporated/min/μl extract, or 200 nucleotides/min/mg total protein.
A suitable assay for detection and/or measurement of telomerase activity is based on a measurement of the addition of TTAGGG (SEQ ID NO. 8) telomeric repeats to a biotinylated telomerase substrate primer, a reaction catalyzed by telomerase. The biotinylated products are captured in streptavidin-coated microtiter plates. An oligonucleotide probe complementary to 3.5 telomere repeats labeled with ^33P is used for measuring telomerase products, as described below. Unbound probe is removed by washing and the amount of probe annealing to the captured telomerase products is determined by scintillation counting.
The data provided in Tables 1 and 2 below were obtained by performing the assay as described below: • 1. Oligonucleotide conjugates were stored as concentrated stocks and dissolved in PBS. • 2. For testing, the oligonucleotide conjugates were diluted to a 15× working stock in PBS and 2 μl was dispensed into two wells of a 96-well microtiter dish (assayed in duplicate). • 3. Telomerase extract was diluted to a specific activity of 0.04-0.09 fmol dNTP incorporated/min./μl in Telomerase Dilution Buffer and 18 μl added to each sample well to preincubate with compound for 30 minutes at room temperature. • 4. The telomerase reaction was initiated by addition of 10 μl Master Mix to the wells containing telomerase extract and oligonucleotide compound being tested. The plates were sealed and incubated at 37° C. for 90 min. • 5. The reaction was stopped by the addition of 10 μl HCS. • 6. 25 μl of the reaction mixture was transferred to a 96-well streptavidin-coated FlashPlate™ (NEN) and incubated for 2 hours at room temperature with mild agitation. • 7. The wells were washed three times with 180 μl 2×SSC without any incubation.
8. The amount of probe annealed to biotinylated telomerase products was detected in a scintillation counter.

[1] = Table 1, oligonucleotide has N3′→P5′ phosphoramidate (NP) internucleoside linkages, read-out: IC50 NP
[2] = Table 1, oligonucleotide has N3′→P5′ thio-phosphoramidate (NPS) internucleoside linkages, read-out: IC50 NPS
[3] = Table 2, oligonucleotide has N3′→P5′ thio-phosphoramidate (NPS) internucleoside linkages, read-out: IC50 NPS

T1 sequence (O14746 whole entry): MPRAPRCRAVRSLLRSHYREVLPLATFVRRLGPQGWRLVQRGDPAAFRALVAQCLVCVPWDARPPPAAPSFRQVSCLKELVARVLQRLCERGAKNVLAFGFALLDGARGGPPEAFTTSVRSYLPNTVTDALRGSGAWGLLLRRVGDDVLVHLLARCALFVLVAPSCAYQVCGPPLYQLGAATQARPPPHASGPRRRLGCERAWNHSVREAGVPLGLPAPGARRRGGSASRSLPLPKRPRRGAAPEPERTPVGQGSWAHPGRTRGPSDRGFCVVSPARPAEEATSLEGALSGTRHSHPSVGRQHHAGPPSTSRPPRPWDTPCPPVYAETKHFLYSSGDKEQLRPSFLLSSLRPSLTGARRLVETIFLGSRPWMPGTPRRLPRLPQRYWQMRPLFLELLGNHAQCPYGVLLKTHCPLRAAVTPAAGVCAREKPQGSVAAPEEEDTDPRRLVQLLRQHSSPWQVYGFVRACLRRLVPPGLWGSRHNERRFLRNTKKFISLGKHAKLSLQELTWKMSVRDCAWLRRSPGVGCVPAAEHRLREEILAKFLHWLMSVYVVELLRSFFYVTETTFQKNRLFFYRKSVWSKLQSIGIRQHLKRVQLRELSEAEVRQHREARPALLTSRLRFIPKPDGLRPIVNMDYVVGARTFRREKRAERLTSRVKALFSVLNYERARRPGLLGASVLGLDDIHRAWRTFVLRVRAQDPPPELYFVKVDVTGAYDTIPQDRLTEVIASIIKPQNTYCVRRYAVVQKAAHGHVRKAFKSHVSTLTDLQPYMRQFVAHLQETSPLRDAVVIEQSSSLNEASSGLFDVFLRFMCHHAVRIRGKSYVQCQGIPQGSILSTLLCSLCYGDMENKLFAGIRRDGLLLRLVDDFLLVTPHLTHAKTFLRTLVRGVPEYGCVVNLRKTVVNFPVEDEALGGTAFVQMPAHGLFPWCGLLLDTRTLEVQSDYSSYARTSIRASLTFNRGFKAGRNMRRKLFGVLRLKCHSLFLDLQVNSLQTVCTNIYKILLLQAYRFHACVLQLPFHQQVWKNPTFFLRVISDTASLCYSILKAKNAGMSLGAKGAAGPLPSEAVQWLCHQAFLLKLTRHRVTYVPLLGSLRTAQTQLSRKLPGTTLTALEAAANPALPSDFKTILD
T1 sequence (O60832 whole entry partner): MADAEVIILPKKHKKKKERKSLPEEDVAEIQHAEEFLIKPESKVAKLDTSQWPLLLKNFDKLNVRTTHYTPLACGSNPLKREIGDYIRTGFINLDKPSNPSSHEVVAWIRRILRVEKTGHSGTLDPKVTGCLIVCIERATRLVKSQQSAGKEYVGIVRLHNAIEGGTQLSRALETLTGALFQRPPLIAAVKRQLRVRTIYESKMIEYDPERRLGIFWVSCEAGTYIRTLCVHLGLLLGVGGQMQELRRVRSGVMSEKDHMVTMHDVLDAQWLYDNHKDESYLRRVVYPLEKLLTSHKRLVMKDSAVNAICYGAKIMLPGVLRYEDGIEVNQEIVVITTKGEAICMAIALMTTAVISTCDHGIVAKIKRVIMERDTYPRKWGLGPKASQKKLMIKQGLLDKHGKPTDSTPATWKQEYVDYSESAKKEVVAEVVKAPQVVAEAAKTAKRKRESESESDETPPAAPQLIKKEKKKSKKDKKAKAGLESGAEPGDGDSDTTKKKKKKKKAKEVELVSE
T1 sequence (Q9NPE3 whole entry partner): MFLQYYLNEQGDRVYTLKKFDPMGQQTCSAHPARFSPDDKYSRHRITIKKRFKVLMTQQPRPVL
T1 sequence (Q9NX24 whole entry partner): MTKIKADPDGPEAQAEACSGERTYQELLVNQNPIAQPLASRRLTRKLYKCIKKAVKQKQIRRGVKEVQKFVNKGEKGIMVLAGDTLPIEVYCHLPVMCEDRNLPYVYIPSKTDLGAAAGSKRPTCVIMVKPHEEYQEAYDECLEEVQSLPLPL
T1 sequence (Q9NY12 whole entry partner): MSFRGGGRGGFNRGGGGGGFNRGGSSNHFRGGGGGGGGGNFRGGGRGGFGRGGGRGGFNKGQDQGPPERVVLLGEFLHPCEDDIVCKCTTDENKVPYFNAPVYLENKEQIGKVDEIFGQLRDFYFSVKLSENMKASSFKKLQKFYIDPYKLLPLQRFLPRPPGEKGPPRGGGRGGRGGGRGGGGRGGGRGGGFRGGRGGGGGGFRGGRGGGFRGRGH

Q: How did the IC50 [1] turn out when “GGGTTAG (unconjugated): unconjugated oligonucleotide GGGTTAG (SEQ ID: 6), tested with NP and with NPS internucleoside linkages” was run?
A: 600 nM

Q: And the IC50 [2]?
A: 9 nM and 5 nM and 10 nM and 8 nM

Q: What about the IC50 [3] of the same sequence?
A: 9 nM and 5 nM and 10 nM

Q: “GTTAGG (unconjugated): unconjugated oligonucleotide GTTAGG (SEQ ID: 7), NP and NPS forms” was tested. Which IC50 [1] did it give?
A: 470 nM

Q: What about the IC50 [2] of the same sequence?
A: 120 nM

Q: What does the source list for “TTAGGG (unconjugated): unconjugated oligonucleotide TTAGGG (SEQ ID: 8), NP and NPS forms”?
A: IC50 [1]: 11000 nM; IC50 [2]: 1200 nM; IC50 [3]: 1170 nM and 1000 to 55000 nM
